Structures are written as SMILES.

The target of one series is NR2B receptor (Rattus norvegicus (Rat), UniProt P35439+Q00960). The experiment in a line: [3H] (E)-N1-(2-methoxybenzyl)-cinnamidine radioligand binding, rat brain membranes. Here is the method:
(§1) This example describes NMDA receptor binding assays using two different radioligands, [^3H] […] An established binding assay using the non-selective NMDA receptor ligand [^3H] […] The binding assay method using the NR2B selective receptor ligand [^3H] […] This assay serves as a selective measure of NR2B receptor binding activity in native rat brain receptors. Briefly, the brains of Male Wistar rats were homogenized (Polytron) before centrifugation at 40,000×g for 15 minutes at 4° C. After 2 washes, the final pellet was homogenized and stored at −80° C. The protein concentration was determined by Bradford assay.
[^3H] […] Thus, using [^3H]
(§2) Test compounds were solubilized at 10 mM in DMSO. Then the dilutions were performed with a constant solvent concentration (1% DMSO) in the assay.
(§3) After incubation for 4.5 h at room temperature, the assays were filtered on GF/B filters pretreated with 0.3% (v/v) PEI with a Brandel system for [^3H] […] The experiment was performed in duplicate (n=2).

The next series concerns the target CYP2D6 (Homo sapiens (Human), UniProt P10635). The experiment in a line: CYP P450 enzyme inhibition, pooled human liver microsome. Format: in vitro ADME. The settings on record: 10 μM, pooled HLM, dextromethorphan 5 μM. A general note: Microsomes from liver hold many membrane-bound enzymes, among them those of drug oxidation.
For a further series, the target named is hERG channel (Homo sapiens (Human), UniProt Q12809). The experiment in a line: hERG channel inhibition, whole cell patch clamp in HEK293 cells. Format: cell-based.
Sequence of hERG channel (Q12809 whole entry): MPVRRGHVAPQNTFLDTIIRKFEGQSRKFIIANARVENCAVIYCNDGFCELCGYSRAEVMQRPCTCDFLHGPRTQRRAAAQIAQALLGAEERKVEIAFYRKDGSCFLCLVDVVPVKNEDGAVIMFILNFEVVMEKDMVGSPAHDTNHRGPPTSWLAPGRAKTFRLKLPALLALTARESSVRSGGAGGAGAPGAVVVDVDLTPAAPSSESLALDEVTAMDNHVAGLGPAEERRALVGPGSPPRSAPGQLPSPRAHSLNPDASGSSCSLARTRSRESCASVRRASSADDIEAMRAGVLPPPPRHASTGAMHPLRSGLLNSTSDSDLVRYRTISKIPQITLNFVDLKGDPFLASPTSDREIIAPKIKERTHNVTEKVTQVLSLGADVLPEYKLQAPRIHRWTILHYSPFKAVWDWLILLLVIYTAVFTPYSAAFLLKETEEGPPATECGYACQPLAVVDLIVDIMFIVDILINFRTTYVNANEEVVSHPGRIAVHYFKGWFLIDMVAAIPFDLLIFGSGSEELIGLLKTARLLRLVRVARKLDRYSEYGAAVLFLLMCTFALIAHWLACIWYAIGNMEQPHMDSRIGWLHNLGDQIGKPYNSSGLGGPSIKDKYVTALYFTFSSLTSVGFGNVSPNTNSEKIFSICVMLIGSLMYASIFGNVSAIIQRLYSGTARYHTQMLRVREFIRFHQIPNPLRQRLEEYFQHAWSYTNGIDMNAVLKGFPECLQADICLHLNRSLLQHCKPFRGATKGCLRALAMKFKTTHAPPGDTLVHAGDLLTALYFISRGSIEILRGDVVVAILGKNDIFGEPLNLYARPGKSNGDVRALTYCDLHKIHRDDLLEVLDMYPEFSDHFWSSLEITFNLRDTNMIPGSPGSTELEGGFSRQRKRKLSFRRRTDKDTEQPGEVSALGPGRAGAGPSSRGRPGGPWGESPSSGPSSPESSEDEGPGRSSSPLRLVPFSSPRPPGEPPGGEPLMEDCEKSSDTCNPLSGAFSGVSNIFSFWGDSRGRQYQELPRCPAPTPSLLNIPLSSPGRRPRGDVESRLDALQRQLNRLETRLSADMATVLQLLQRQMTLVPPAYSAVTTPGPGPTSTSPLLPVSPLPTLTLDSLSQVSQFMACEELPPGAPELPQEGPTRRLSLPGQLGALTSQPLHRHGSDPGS
For series [1], the system named is haloperidol-induced catalepsy. The experiment in a line: Haloperidol-Induced Catalepsy (HIC) Model. The format is in vivo. The settings on record: rats. From the text: The Haloperidol-induced Catalepsy (HIC) model detects antipsychotic activity and the action of NR2B selective antagonists (Steece-Collier et al. Exp. Neurol. 163: 239, 2000) and was based on methods described by Chermat and Simon (J. Pharmacol., 6, 493-496, 1975). The capacity to induce catalepsy serves as an index of the liability of a test substance to induce extrapyramidal side-effects, in particular Parkinsonism. Antagonism of antipsychotic-induced catalepsy can thus serve to detect anti-Parkinson potential.
Rats were injected with haloperidol (1 mg/kg i.p.) and were examined for catalepsy at 30 minute intervals up to 360 minutes. Presence (+) or absence (−) of catalepsy was assessed by three procedures: 1) imposed crossing of the ipsilateral fore- and hind-limbs; 2) placing the animal in the Buddha position; 3) the tilting board, an automatic device that, 5 seconds after positioning the rat, displaces the rat from a horizontal to vertical position and back while it clings to a wire grid with its front paws. Akinesia and catalepsy were assessed depending on whether or not the animal moves before (akinesia) or during operation of the board (catalepsy).
The 4 scores were cumulated over time to give a global catalepsy score per animal. Six rats were studied per group. The test was performed blind (test substances versus vehicle). Test substances were evaluated at 1 or more doses, administered typically using 0.5% dimethylsulfoxide, 4% hydroxypropyl-b-cyclodextrin water as a vehicle p.o. 15 minutes before haloperidol (i.e. 45 minutes before the first measurement), and compared with a vehicle control group.
Amphetamine (8 mg/kg p.o.), administered 60 minutes before the test (i.e. 90 minutes before the first measurement), was used as reference substance. Data with the test substances were analyzed by comparing treated groups with vehicle control using Kruskal-Wallis Test followed by Mann-Whitney U tests at each time and for cumulated score. Data with the reference substance were analyzed using Mann-Whitney U tests.

The test system of another series is NMDA receptor. The experiment in a line: [3H] MK-801 radioligand binding, rat brain membranes. The settings on record: 2 nM [3H] MK-801. The method, then:
as §1, §2, §3

For the next series, the target named is human NR1/NR2B (Homo sapiens (Human), UniProt Q05586+Q13224). The experiment in a line: NR2B antagonist activity, Fluo-4 calcium influx in HEK293 cells. Format: cell-based. The method, then:
HEK293 cell lines stably expressing cloned human NR1/NR2B and NR1/NR2A, respectively, were established according to standard previously described methods (Hansen et al., Comb. Chem High Throughput Screen. 11:304, 2008). Activation of the NR2A or NR2B subtype of NMDA receptor with glutamate as an agonist and glycine co-agonist on these cells results in calcium influx, which can be monitored with fluorescent indicator Fluo-4.
For experiments, the cells were seeded onto poly-D-lysine-coated 96-well black plates with clear bottom (Corning) at a density of ˜50,000 cells/well. After overnight culture, the growth medium was removed from the wells and the cells were incubated at 37° C. for 60 min in Hanks buffer containing 4 μM fluo-4-AM (Invitrogen) and 0.1% bovine serum albumin (BSA). After dye-loading, the cells were washed three times with Hanks buffer and incubated for 10 min at room temperature with various concentrations of test compounds prepared in Hanks buffer with 0.1% BSA. The cell plates were placed onto FDSS pCell fluorescence reader (Hamamatsu). After 20 sec reading of background fluorescence, agonist glutamate at final 100 μM and co-agonist glycine at final 50 μM were added to the cells to activate the receptor, and the resulting fluorescence changes were recorded and quantified. Based on the changes in fluorescence intensity, the pharmacological effect of test compounds were analyzed and the IC50 values derived from a non-linear least squares fitting of the concentration-dependent response to a standard logistic equation using Prism (Graphpad, Inc): Amplitude=Max Amplitude/(1+(IC50/[antagonist])^n).

Sequence of human NR1/NR2B (Q13224 27-1484, other chains not shown): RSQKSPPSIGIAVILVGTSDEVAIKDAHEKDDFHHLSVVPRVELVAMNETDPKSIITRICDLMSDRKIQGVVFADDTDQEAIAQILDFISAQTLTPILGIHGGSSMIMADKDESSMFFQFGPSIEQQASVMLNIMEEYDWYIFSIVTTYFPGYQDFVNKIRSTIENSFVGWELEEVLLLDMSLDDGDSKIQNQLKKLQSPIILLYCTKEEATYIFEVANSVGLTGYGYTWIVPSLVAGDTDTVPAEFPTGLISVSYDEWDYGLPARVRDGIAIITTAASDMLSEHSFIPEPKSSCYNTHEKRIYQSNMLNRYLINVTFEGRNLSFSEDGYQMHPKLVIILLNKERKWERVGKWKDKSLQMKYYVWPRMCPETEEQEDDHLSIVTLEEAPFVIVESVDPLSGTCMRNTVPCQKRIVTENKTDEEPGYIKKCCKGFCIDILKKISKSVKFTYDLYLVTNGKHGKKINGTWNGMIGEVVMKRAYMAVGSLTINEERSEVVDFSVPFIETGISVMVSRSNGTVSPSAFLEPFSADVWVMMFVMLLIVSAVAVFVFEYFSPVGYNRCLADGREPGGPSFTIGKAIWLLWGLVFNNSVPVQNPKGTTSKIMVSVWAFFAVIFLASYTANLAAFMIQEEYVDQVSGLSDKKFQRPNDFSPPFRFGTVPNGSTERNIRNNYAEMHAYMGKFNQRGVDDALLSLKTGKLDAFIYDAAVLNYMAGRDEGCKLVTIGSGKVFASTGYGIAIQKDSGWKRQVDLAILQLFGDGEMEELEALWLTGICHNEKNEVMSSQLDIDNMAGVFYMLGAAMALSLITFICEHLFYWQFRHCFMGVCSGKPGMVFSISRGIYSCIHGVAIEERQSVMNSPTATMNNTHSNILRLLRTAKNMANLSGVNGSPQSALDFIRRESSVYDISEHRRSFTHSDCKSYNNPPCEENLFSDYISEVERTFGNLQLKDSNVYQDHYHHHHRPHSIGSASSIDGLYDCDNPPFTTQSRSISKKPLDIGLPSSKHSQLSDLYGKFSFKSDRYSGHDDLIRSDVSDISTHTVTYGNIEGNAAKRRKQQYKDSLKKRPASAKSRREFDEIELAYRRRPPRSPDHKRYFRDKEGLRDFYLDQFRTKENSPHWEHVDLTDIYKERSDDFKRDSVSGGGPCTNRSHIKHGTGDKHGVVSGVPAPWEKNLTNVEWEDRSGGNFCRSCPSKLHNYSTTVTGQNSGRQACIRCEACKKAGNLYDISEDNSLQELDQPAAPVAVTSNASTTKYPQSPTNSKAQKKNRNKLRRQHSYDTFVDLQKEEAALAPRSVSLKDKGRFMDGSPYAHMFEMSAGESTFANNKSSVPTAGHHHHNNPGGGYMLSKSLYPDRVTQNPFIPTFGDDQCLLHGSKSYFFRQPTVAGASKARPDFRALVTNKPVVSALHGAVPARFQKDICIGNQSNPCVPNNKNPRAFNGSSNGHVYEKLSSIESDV
Sequence of NR2B receptor (Q00960 27-1482, other chains not shown): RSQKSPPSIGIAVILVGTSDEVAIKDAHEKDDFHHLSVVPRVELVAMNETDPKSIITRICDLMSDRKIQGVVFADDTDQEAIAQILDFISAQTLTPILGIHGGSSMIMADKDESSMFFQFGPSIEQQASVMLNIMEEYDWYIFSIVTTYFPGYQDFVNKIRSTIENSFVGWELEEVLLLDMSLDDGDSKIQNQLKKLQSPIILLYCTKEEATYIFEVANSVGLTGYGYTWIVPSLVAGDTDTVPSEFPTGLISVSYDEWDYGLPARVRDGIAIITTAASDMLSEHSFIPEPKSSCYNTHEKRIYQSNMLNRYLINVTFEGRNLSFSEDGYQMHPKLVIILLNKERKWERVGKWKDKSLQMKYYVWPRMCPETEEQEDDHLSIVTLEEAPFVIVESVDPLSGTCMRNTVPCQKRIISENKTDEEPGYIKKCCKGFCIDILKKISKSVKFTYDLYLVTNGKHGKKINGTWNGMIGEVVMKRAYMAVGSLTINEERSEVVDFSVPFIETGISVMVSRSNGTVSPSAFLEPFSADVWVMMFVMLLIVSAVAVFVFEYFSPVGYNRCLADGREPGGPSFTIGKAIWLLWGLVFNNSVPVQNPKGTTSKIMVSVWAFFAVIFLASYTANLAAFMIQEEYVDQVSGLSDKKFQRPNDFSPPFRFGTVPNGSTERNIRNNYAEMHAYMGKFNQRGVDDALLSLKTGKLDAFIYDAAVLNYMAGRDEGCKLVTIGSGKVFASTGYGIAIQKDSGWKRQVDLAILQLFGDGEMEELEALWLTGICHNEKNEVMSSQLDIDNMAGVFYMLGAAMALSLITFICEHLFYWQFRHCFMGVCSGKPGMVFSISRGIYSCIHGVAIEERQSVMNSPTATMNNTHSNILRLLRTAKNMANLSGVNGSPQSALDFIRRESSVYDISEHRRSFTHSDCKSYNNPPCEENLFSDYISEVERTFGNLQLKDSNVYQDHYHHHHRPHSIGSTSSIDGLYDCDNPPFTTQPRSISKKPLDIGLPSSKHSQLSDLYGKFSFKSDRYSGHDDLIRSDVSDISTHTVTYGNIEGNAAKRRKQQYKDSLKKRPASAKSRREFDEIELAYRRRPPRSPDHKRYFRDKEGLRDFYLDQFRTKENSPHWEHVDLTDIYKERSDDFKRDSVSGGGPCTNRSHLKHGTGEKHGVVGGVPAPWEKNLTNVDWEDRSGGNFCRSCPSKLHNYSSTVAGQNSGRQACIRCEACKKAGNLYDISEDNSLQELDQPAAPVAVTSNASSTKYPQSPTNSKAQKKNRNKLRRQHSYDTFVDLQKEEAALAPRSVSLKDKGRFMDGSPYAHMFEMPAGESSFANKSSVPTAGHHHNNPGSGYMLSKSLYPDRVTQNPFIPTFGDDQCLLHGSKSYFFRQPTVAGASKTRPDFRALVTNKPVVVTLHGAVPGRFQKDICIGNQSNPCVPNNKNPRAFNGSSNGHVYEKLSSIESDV
Sequence of CYP2D6 (P10635 whole entry): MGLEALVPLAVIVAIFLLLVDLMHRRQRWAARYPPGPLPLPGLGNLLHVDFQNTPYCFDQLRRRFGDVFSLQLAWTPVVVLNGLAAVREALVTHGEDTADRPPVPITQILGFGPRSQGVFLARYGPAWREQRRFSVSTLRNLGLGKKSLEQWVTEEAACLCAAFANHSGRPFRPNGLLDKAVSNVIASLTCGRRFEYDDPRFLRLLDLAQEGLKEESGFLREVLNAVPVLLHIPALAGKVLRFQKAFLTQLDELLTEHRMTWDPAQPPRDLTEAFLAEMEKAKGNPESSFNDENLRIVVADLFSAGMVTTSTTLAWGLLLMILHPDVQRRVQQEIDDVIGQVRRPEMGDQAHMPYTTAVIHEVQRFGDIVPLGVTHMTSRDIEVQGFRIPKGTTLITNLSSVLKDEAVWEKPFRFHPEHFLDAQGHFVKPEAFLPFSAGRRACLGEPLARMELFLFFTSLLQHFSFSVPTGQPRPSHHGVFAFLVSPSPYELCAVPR
Description for CYP2D6: Those CYP isoforms and their corresponding probe substrates are as follows: CYP1A2 (phenacetin, 30 μM), CYP2C9 (tolutamide, 100 μM), CYP2C19 (S-mephenytoin, 40 μM), CYP2D6 (dextromethorphan, 5 μM) and CYP3A4 (midazolam, 1 μM). All probe substrates were used at concentrations near or below their Kms. For experiment, a reaction mixture of test compound at 10 μM or in serial dilution, CYP probe substrate described above and 0.2 mg/mL pooled HLM in phosphate buffer, pH 7.4 in a final volume of 200 μL was pre-incubated at 37° C. for 10 minutes in triplicate. The reaction was initiated by addition of NADPH at final concentration of 1 mM. The reaction was terminated after 10 minutes (CYP1A2, CYP2D6 and CYP3A4) or 30 minutes (CYP2C9 and CYP2C19) by addition of 100 μL ice-cold acetonitrile with internal standard (IS). The samples were then centrifuged at 13,000 rpm and the supernatants were injected to LC-MS/MS (Agilent Technologies) to quantify the concentration of the specific metabolites of the probe substrates formed by individual CYP450 isoforms. The inhibition ratio is calculated as: (Mt−M0)/Mwater×100% in which Mt and M0 represent the concentrations of the specific probe substrate metabolite, which was formed by individual CYP450 isoform, at the beginning and end of the reaction in the presence of test compound; while Mwater represents the concentration of the specific metabolite at the end of the reaction in the absence of test compound. Test compound concentration-dependent response data experiments performed in triplicate.
Description for hERG channel: The assay was performed on hERG channel stably expressed in HEK293 cells. The cells were cultured at 37° C. in a humidified CO2 incubator in the growth medium consisting of DMEM, 10% fetal bovine serum and antibiotics. Prior to the assay, the cells were seeded onto a 12 mm PDL-coated glass coverslip and cultured in a 35 mm Petri dish. After 16 to 40 hr culture, the cover slip was transferred into the chamber of OctaFlow perfusion system (ALA Instrument) and under a constant flow of extracellular solution (140 mM NaCl, 4 mM KCl, 1 mM MgCl2, 2 mM CaCl2, 10 mM HEPES, 10 mM D-glucose, pH 7.35, osmolarity 290). Whole cell patch clamping was performed with a glass micropipette filled with intracellular solution (120 mM KCl, 1.75 mM MgCl2, 5.4 mM CaCl2, 10 mM HEPES, 10 mM EGTA, and 4 mM ATP-K2, PH 7.2, osmolarity 310). Giga-seal was maintained during the test. The voltage control and current measurement were carried out using Axon amplifier 700B, Digidata 1440A and CLAMPEX10 software (Molecular Devices). Whole-cell hERG currents were recorded following the Petroski protocol: the cell was held at −80 mV, and the voltage step jumped from −80 to 30 mV and stay for 2 sec with a 20 ms prepulse at −40 mV. After depolarization, the voltage was decreased to −40 mV and stay for 2 sec, and returned back to −80 mV. Test compound was applied by quartz capillary tubes tip (200 μm inner diameter), and the flow rate was controlled at 2-3 ml/min with OctaFlow perfusion system. Different concentrations of the compound were applied to the cells for 5 min and the hERG current was measured three times before, during and after compound treatment. The data were analyzed using Clampfit 10 software (Molecular Devices) to generate IC50 values.

For orientation: Ki means a dissociation constant, usually derived from enzyme kinetics or from competition with a known ligand. In general, IC50 refers to the concentration needed to halve the response being measured. As for `Cc1ccc(COC(=O)N2CC[C@H](CNc3nccn4cnnc34)C(F)(F)C2)cc1` [Compound E1-1.2, (+)-R-4-methylbenzyl 4-(([1,2,4]triazolo[4,3-a]pyrazin-8-ylamino)methyl)-3,3-difluoropiperidine-1-carboxylate], at NR2B receptor (rat brain membranes), the “displacement of [3H] (E)-N1-(2-methoxybenzyl)-cinnamidine at the NR2B receptor high affinity site” value came out at 96%. Besides, the Ki at NR2B receptor (read-out: Ki at the NR2B receptor high affinity site) was found to be 5.23 nM. Further, at CYP2D6, the “CYP2D6 @ 10 μM (%)” value was 14%. In addition, the “hERG @ 10 μM (%)” value at hERG channel (10 μM) amounted to 17%. In addition, the IC50 against hERG channel (HEK293, whole cell patch clamp) stood at 40000 nM; at human NR1/NR2B (Table 2.1, HEK293 human NR1/NR2B, glutamate 100 μM, glycine 50 μM) it was 21 nM; on human NR1/NR2B (Table 2.2), 21 nM; on human NR1/NR2B (Table 2.3), 21 nM. For the same molecule, the “cumulated score of catalepsy over 360 mins” value in series [1] (1 mg/kg p.o.) came out at 17.0; in series [1] (3 mg/kg p.o.), 15.8; in series [1] (p.o., dose not printed in the sentence (other doses 1 and 3 mg/kg)) it was 2.0. Moreover, the “partial effect on [3H] MK-801 binding” value in the series with NMDA receptor was determined as 40%.
